This note sets out measurements from patent publication US20250129088A1, “CEREBLON E3 UBIQUITIN LIGASE INHIBITOR” (Gan & Lee Pharmaceuticals Co., Ltd., priority 2022, published 2025).

Common to all, as to type: cell-based
One test relates to HeLa cells. The test can be described thus: HeLa cell proliferation inhibition, CCK-8. The conditions noted are these: Homo sapiens, 72 h, 3 days. How it is done: The complete medium required for HeLa cells is DMEM high glucose (Gibco, Product number: 11995-065) basal medium containing 10% fetal bovine serum. HeLa cells were seeded in a 96-well plate at a density of 4,000 cells/well, and the next day, different concentrations of the compound of the present invention and the positive control sample Ceritinib (source: Bide Pharmaceuticals) were prepared to treat the cells. The cells were incubated at 37° C., 5% CO2 cell culture incubator for 3 days. Cell viability was detected using the CCK-8 kit (Beyotime, Product number: C0040) according to the manufacturer's instructions. According to the inhibition rate, GraphPad Prism software was used to calculate the IC50 value of each compound for 3 days, and the results are shown in Table 2.

The next test concerns A549 cells. In words: A549 cell proliferation inhibition, CCK-8. The following applies: Homo sapiens, 96 h, A549, 4 days. The protocol: The complete medium required for A549 cells is F-12K (ATCC, Product number: 30-2004) basal medium containing 10% fetal bovine serum. A549 cells were seeded in a 96-well plate at a density of 2,800 cells/well, and the next day, different concentrations of the compound of the present invention and a positive control sample Ceritinib (source: Bide Pharmaceuticals) were prepared to treat the cells. The cells were incubated at 37° C., 5% CO2 cell incubator for 4 days. Cell viability was detected using the CCK-8 kit (Beyotime, Product number: C0040) according to the manufacturer's instructions. According to the inhibition rate, the GraphPad Prism software was used to calculate the IC50 value of each compound for 4 days, and the results are shown in Table 3.

The subject of a further test is MOLM-13 cells. In words: MOLM-13 cell proliferation inhibition, CCK-8. The conditions noted are these: Homo sapiens, 96 h, MOLM-13, 4 days. How it is done: The complete medium required for MOLM-13 cells is 1640 (ATCC, Product number: 30-2001) basal medium containing 20% fetal bovine serum. MOLM-13 cells were seeded in a 96-well plate at a density of 7,500 cells/well, and different concentrations of the compounds of the present invention were prepared to treat the cells at the same time. The cells were incubated in a 37° C., 5% CO2 cell culture incubator for 4 days. Cell viability was detected using the CCK-8 kit (Beyotime, Product number: C0040) according to the manufacturer's instructions. According to the inhibition rate, GraphPad Prism software was used to calculate the IC50 value of each compound for 4 days, and the results are shown in Table 9-10.

In a further test the test system is K562 cells. The test can be described thus: K562 cell proliferation inhibition, CCK-8. The conditions noted are these: Homo sapiens, 96 h, K562, 4 days, Table 12, positive control dBET6. The protocol: The complete medium required for K562 cells is IMDM (ATCC, Product number: 30-2005) basal medium containing 10% fetal bovine serum. K562 cells were seeded in a 96-well plate at a density of 7,500 cells/well, and different concentrations of the compound of the present invention and positive control samples Alisertib (source: Bide Pharmaceuticals) and dBET6 (source: Bide Pharmaceuticals) were prepared to treat the cells. The cells were incubated at a 37° C., 5% CO2 cell culture incubator for 4 days.
Cell viability was detected using the CCK-8 kit (Beyotime, Product number: C0040) according to the manufacturer's instructions. According to the inhibition rate, GraphPad Prism software was used to calculate the IC50 value of each compound for 4 days, and the results are shown in Table 11-12.

Another test relates to MV-4-11 cells. The test can be described thus: MV-4-11 cell proliferation inhibition, CCK-8. The following applies: Homo sapiens, MV4-11, 96 h, MV-4-11, 4 days, Table 7, positive control Palbociclib. The method, boiled down: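 MV-4-11 cells (7,500/well) in IMDM with 10% FBS were exposed to graded compound concentrations for 4 days at 37 °C, 5% CO2. Viability was measured with CCK-8, and IC50 values were derived from inhibition rates.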

As to `Cc1cc(Nc2ncc(Cl)c(Nc3ccccc3S(=O)(=O)C(C)C)n2)c(OC(C)C)cc1C1CCNCC1` [Ceritinib, reference compound], the IC50 is 5.99 µM in the test on HeLa cells and 4.31 µM in the test with A549 cells.
`Cc1nc(Nc2ncc(C(=O)Nc3c(C)cccc3Cl)s2)cc(N2CCN(CCOCCC(=O)N3CCC4(CCc5cc6c(cc5O4)C(=O)N(C4CCC(=O)NC4=O)C6=O)CC3)CC2)n1` (stereo not shown) [PROTAC 9, N-(2-chloro-6-methylphenyl)-2-((6-(4-(2-(3-(7′-(2,6-dioxopiperidin-3-yl)-6′,8′-dioxo-4′,6′,7′,8′-tetrahydro-3′H-spiro[piperidine-4,2′-pyrano[2,3-f]isoindol]-1-yl)-3-oxopropoxy)ethyl)piperazin-1-yl)-2-methylpyrimidin-4-yl)amino)thiazole-5-carboxamide]: the IC50 in the test with MOLM-13 cells (Table 9) was 1.11 µM; with K562 cells, 0.016 µM.
Regarding `Cc1nc(Nc2ncc(C(=O)Nc3c(C)cccc3Cl)s2)cc(N2CCN(CCOCCC(=O)N3CCC4(CC3)COc3cc5c(cc3C4)C(=O)N(C3CCC(=O)NC3=O)C5=O)CC2)n1` (stereo not shown) [PROTAC 10, N-(2-chloro-6-methylphenyl)-2-((6-(4-(2-(3-(7′-(2,6-dioxopiperidin-3-yl)-6′,8′-dioxo-4′,6′,7′,8′-tetrahydro-2′H-spiro[piperidine-4,3′-pyrano[2,3-f]isoindole]-1-yl)-3-oxopropoxy)ethyl)piperazin-1-yl)-2-methylpyrimidin-4-yl)amino)thiazole-5-carboxamide], the IC50 was found to be 1.05 µM with MOLM-13 cells (Table 9) and 0.017 µM with K562 cells.
`Cc1nc(Nc2ncc(C(=O)Nc3c(C)cccc3Cl)s2)cc(N2CCN(CCOCCC(=O)N3CCC4(CC3)COc3cc5c(cc34)C(=O)N(C3CCC(=O)NC3=O)C5=O)CC2)n1` (stereo not shown) [PROTAC 12, N-(2-chloro-6-methylphenyl)-2-((6-(4-(2-(3-(6-(2,6-dioxopiperidin-3-yl)-5,7-dioxo-6,7-dihydro-2H,5H-spiro[furo[2,3-f]isoindole-3,4′-piperidin]-1′-yl)-3-oxopropoxy)ethyl)piperazin-1-yl)-2-methylpyrimidin-4-yl)amino)thiazole-5-carboxamide]: the figures for the IC50 in the test with MOLM-13 cells (Table 9) and in the test with K562 cells were 4.77 µM and 0.04 µM, respectively.
As to `Cc1cc(Nc2ncc(Cl)c(Nc3ccccc3S(=O)(=O)C(C)C)n2)c(OC(C)C)cc1C1CCN(CCOCCC(=O)N2CCC3(CCc4cc5c(cc4O3)CN(C3CCC(=O)NC3=O)C5=O)CC2)CC1` (stereo not shown) [PROTAC 25], the IC50 in the test on HeLa cells is 2.19 µM; in the test with A549 cells, 7.02 µM.
On the same counts, the results for `Cc1cc(Nc2ncc(Cl)c(Nc3ccccc3S(=O)(=O)C(C)C)n2)c(OC(C)C)cc1C1CCN(CCOCCC(=O)N2CCC3(CCc4cc5c(cc4O3)C(=O)N(C3CCC(=O)NC3=O)C5)CC2)CC1` (stereo not shown) [PROTAC 26, 3-(1-(3-(2-(4-(4-((5-chloro-4-((2-(isopropylsulfonyl)phenyl)amino)pyrimidin-2-yl)amino)-5-isopropoxy-2-methylphenyl)piperidin-1-yl)ethoxy)propionyl)-8′-oxo-3′,4′,6′,8′-tetrahydro-7′H-spiro[piperidine-4,2′-pyrano[2,3-f]isoindole]-7′-yl)piperidine-2,6-dione] are 4.33 µM and 4.27 µM.
As for `CC(=O)c1c(C)c2cnc(Nc3ccc(N4CCN(CCOCCC(=O)N5CC6(CCc7cc8c(cc7O6)C(=O)N(C6CCC(=O)NC6=O)C8=O)C5)CC4)cn3)nc2n(C2CCCC2)c1=O` (stereo not shown) [PROTAC 39, 1-(3-(2-(4-(6-((6-acetyl-8-cyclopentyl-5-methyl-7-oxo-7,8-dihydropyridone[2,3-d]pyrimidin-2-yl)amino)pyridin-3-yl)piperazin-1-yl)ethoxy)propionyl)-7′-(2,6-dioxopiperidin-3-yl)-3′,4′-dihydro-6′H-spiro[azetidine-3,2′-pyrano[2,3-f]isoindole]-6′,8′(7′ H)-dione], the figures for the IC50 with MV-4-11 cells and with MOLM-13 cells (Table 10) were 12.7 µM and 12.4 µM, respectively.
For the compound `CC(=O)c1c(C)c2cnc(Nc3ccc(N4CCN(CCOCCC(=O)N5CCC6(CC5)COc5cc7c(cc5C6)C(=O)N(C5CCC(=O)NC5=O)C7=O)CC4)cn3)nc2n(C2CCCC2)c1=O` (stereo not shown) [PROTAC 40, 1-(3-(2-(4-(6-((6-acetyl-8-cyclopentyl-5-methyl-7-oxo-7,8-dihydropyridone[2,3-d]pyrimidin-2-yl)amino)pyridin-3-yl)piperazin-1-yl)ethoxy)propionyl)-7′-(2,6-dioxopiperidin-3-yl)-2′H-spiro[piperidine-4,3′-pyrano[2,3-f]isoindole]-6′,8′(4′H,7′H)-dione], in the test on MOLM-13 cells (Table 10), inhibition was half-maximal at 4.87 µM (IC50). This lies in the single-digit micromolar range.
For `CC(=O)c1c(C)c2cnc(Nc3ccc(N4CCN(CCOCCC(=O)N5CCC6(CC5)COc5cc7c(cc56)C(=O)N(C5CCC(=O)NC5=O)C7=O)CC4)cn3)nc2n(C2CCCC2)c1=O` (stereo not shown) [PROTAC 41, 1′-(3-(2-(4-(6-((6-acetyl-8-cyclopentyl-5-methyl-7-oxo-7,8-dihydropyridone[2,3-d]pyrimidin-2-yl)amino)pyridin-3-yl)piperazin-1-yl)ethoxy)propionyl)-6-(2,6-dioxopiperidin-3-yl)-6-hydro-2H,5H-spiro[furo[2,3-f]isoindole-3,4′-piperidine]-5,7-dione], the IC50 in the test on MV-4-11 cells is 2.16 µM; in the test on MOLM-13 cells (Table 10), 2.19 µM.
Take `CC(=O)c1c(C)c2cnc(Nc3ccc(N4CCN(CCOCCC(=O)N5CCC6(CCc7cc8c(cc7O6)C(=O)N(C6CCC(=O)NC6=O)C8)CC5)CC4)cn3)nc2n(C2CCCC2)c1=O` (stereo not shown) [PROTAC 42, 3-(1-(3-(2-(4-(6-((6-acetyl-8-cyclopentyl-5-methyl-7-oxo-7,8-dihydropyridone[2,3-d]pyrimidin-2-yl)amino)pyridin-3-yl)piperazin-1-yl)ethoxy)propionyl)-8′-oxo-3′,4′,6′,8′-tetrahydro-7′H-spiro[piperidine-4,2′-pyrano[2,3-f]isoindole]-7′-yl)piperidine-2,6-dione]: the IC50 came out at 0.94 µM with MV-4-11 cells and 0.83 µM in the test on MOLM-13 cells (Table 10).
On to `CC(=O)c1c(C)c2cnc(Nc3ccc(N4CCN(CCOCCC(=O)N5CCC6(CCc7cc8c(cc7O6)CN(C6CCC(=O)NC6=O)C8=O)CC5)CC4)cn3)nc2n(C2CCCC2)c1=O` (stereo not shown) [PROTAC 43, 3-(1-(3-(2-(4-(6-((6-acetyl-8-cyclopentyl-5-methyl-7-oxo-7,8-dihydropyridone[2,3-d]pyrimidin-2-yl)amino)pyridin-3-yl)piperazin-1-yl)ethoxy)propionyl)-6′-oxo-6′,8′-dihydro-3′H,7′H-spiro[piperidine-4,2′-[1,4]dioxino[2,3-f]isoindole]-7′-yl)piperidine-2,6-dione], for which the figures for the IC50 with MV-4-11 cells and in the test on MOLM-13 cells (Table 10) were 2.49 µM and 1.87 µM, respectively.
Take `CC(=O)c1c(C)c2cnc(Nc3ccc(N4CCN(CCOCCC(=O)N5CC6(CCc7cc8c(cc7O6)C(=O)N(C6CCC(=O)NC6=O)C8)C5)CC4)cn3)nc2n(C2CCCC2)c1=O` (stereo not shown) [PROTAC 44, 3-(1-(3-(2-(4-(6-((6-acetyl-8-cyclopentyl-5-methyl-7-oxo-7,8-dihydropyridone[2,3-d]pyrimidin-2-yl)amino)pyridin-3-yl)piperazin-1-yl)ethoxy)propionyl)-8′-oxo-3′,4′,6′,8′-tetrahydro-7′H-spiro[azetidine-3,2′-pyrano[2,3-f]isoindole]-7′-yl)piperidine-2,6-dione]: the IC50 in the test on MV-4-11 cells was 3.31 µM; with MOLM-13 cells (Table 10), 1.31 µM.
On the same counts, the results for `CC(=O)c1c(C)c2cnc(Nc3ccc(N4CCN(CCOCCC(=O)N5CC6(CCc7cc8c(cc7O6)CN(C6CCC(=O)NC6=O)C8=O)C5)CC4)cn3)nc2n(C2CCCC2)c1=O` (stereo not shown) [PROTAC 45, 3-(1-(3-(2-(4-(6-((6-acetyl-8-cyclopentyl-5-methyl-7-oxo-7,8-dihydropyridone[2,3-d]pyrimidin-2-yl)amino)pyridin-3-yl)piperazin-1-yl)ethoxy)propionyl)-6′-oxo-3′,4′,6′,8′-tetrahydro-7′H-spiro[azetidine-3,2′-pyrano[2,3-f]isoindole]-7′-yl)piperidine-2,6-dione] are 4.25 µM and 4.34 µM.

In general, IC50 refers to the concentration that gives 50% inhibition. Lower therefore signals greater potency in that assay.
